Data as given in patent US10647672B2, “Modulators of cell adhesion, methods and compositions therefor” (Zonula Incorporated, priority 2017, dated 2020).

Columns and labels:
[1] = system: 3D spheroid N-cadherin mouse fibroblast (LN5) cells; experiment: hanging drop 3D spheroid cell culture assay; assay type: cell-based; conditions: hanging drops incubated 48 h
Experimental: In these experiments, a total of 2×10^6 originally noncohesive embryonic mouse L929 fibroblasts (L cells) were transfected by electroporation in 400 μl transfection medium (RPMI 1640, 1% dextrose, 1 mM β-mercaptoethanol) with 40 μg pMiwcN chicken N-cadherin expression vector (Miyatani, S., et al., Science, 1989, 245, 631-635; Fujimori T., et al., Development, 1990, 110. 97-104). Neomycin resistance (pwlneo, GIBCO) was included for G418 selection. Transfected cells were diluted 1/100 and placed in medium containing 800 μg/ml G418 (GIBCO). Resistant cells were grown to confluence, detached by trypsin/Ca^2+ treatment, and stained with an anti-chicken N-cadherin antibody (NCD2, Zymed) on ice for 45 min. After several washes in Hanks' balanced salt solution, cells were mixed with a fluorescein isothiocyanate-conjugated secondary antibody and placed on ice for 30 min. N-cadherin-expressing cells were then autocloned into 96-well plates by using the CloneCyt Integrated Deposition System (Becton-Dickinson Immunocytometry Systems). Positive clones were reanalyzed by FACS and the L cell line LN5 was propagated for these studies.
The 3D spheroids were generated as follows. Cells were removed from near-confluent plates with TC (0.05% trypsin and 2 mM Ca^2+ in Hank's solution for 5-10 minutes), washed once with 1 mL 4° C. Hank's solution, and suspended at a concentration of 2.5×10^6 cells/ml in complete MEM supplemented with 2 mM CaCl2 and varying concentrations of N-cadherin antagonists (Crocus Laboratories, Montreal, Quebec, Canada). The antagonists were compound 15 (MW=499.43) and compound 16 (MW=499.43). Stock solutions of the antagonists were prepared by dissolving the antagonists in DMSO at concentrations of 30 mM. Controls were made by suspending the cells as described above in the absence of antagonists with only the respective amount of DMSO added. Drops of the cell suspensions (10 microliters each) were deposited on the underside of a 10 cm tissue culture dish lid. The lid was then inverted and placed on dish containing 5 ml of PBS for hydration. Hanging drops were incubated under tissue culture conditions for 48 h, allowing the cells to coalesce at the base of the droplets and to form multi-layer aggregates. The tissue culture dish lid was then removed and the medium was gently aspirated. Aggregates (N=10-20) where then photographed under 4× lens and cell area was analyzed using ImageJ. Statistical differences were determined using ANOVA and Tukey's multiple comparison test.
Each of the antagonists tested from Crocus Laboratories contained cadherin antagonist properties at different potency levels. We determined the approximate minimum concentration needed for an anti-adhesion dose response on 3D spheroid N-cadherin mouse fibroblast (LN5) cells. […]

[2] = system: Panc-1 human pancreatic cancer cells; experiment: cell death, trypan blue exclusion count; assay type: cell-based; conditions: 24 hours
Experimental: (§1) In these experiments, Panc-1 human pancreatic cancer cells were maintained in Dulbecco's minimum essential medium supplemented with 10% fetal calf serum at 37° C. in 5% CO2 in air. All culture reagents were purchased from Invitrogen (Burlington, ON). Panc-1 cells (ATCC CRL-1469) were plated at 20,000 cells per well of a 4-well tissue culture slide (NalgeNunc, Naperville, Ill.). After 24 hours of culture, cells were treated for 24 hours with medium containing varying concentrations of compounds 15 and 16 dissolved in dimethylsulfoxide (DMSO; final concentration of 1% DMSO in the medium), or 1% DMSO alone in the medium and then fixed with 4% paraformaldehyde dissolved in phosphate buffered saline and stained with hematoxylin. Disruption of cell adhesion was determined visually within 24 hours, by observing retraction of the cells from one another.
In order to determine the effect of the compounds on cell death, the medium was aspirated from the treated and untreated cultures and the non-adherent cells collected by centrifugation (1000 rpm for 5 min). The cells were resuspended in phosphate buffered saline and combined with trypan blue (Sigma). Cells were then put in a hemocytometer and the number of cells that excluded the trypan blue counted using a microscope to determine the number of live cells.

[3] = system: Panc-1 human pancreatic cancer cells; experiment: cancer cell adhesion, visual retraction of cells; assay type: cell-based; conditions: 24 hours, light microscopy
Experimental: as §1

[4] = system: human fibroblast-like synoviocytes (FLS); experiment: fibroblast-like synoviocyte cell adhesion; assay type: cell-based; conditions: 24 hours treatment
Experimental: In these experiments, human fibroblast-like synoviocytes (FLS) (ScienCell Research Laboratories (Carlsbad, Calif.; Cat #4700) were maintained in complete Synoviocyte media (ScienCell Research Laboratories Carlsbad, Calif. Cat #4701) at 37° C. in 5% CO2 in air. FLS cells were plated at 1.5×10^4 cells per well of a 4-well tissue culture slide (NalgeNunc, Naperville, Ill.). After 24 hours of culture, cells were treated for 24 hours with medium containing varying concentrations of compounds 15 dissolved in dimethylsulfoxide (DMSO; final concentration of 1% DMSO in the medium), or 1% DMSO alone in the medium. The cells were then fixed with 4% paraformaldehyde dissolved in phosphate buffered saline and stained with hematoxylin. Disruption of cell adhesion was determined visually within 24 hours, by observing retraction of the cells from one another.

[5] = system: female mice; experiment: ovulation / corpus luteum formation in hormone-stimulated mice; assay type: in vivo, mouse; conditions: 50 mg/kg i.p. twice per day
Experimental: In these experiments, two groups of female mice (n=6 per group) were injected i.p. (50 μL per injection) twice per day with either vehicle control (saline containing 7.5% DMSO) or vehicle containing compound 15 (50 mg/kg) at the days indicated in FIG. 10. The mice were injected with hormones to stimulate ovulation. FIG. 10 is a schematic showing the injection of hormones into mice to cause follicle maturation and injection of compound 15.

[6] = system: 5TGM1 mouse MM plasma cells; experiment: C57BL/KaLwRij murine model of Multiple Myeloma, tumor burden; assay type: in vivo; conditions: 50 mg/kg/day i.p. for 5 days; assessed at days 14, 21 and 28
Experimental: In these experiments, 5TGM1 mouse MM plasma cells (expressing a dual GFP and luciferase reporter construct (Noll Neoplasia 2014; Cheong 2015)) were maintained in Iscove's modified Dulbecco's medium (IMDM) with 20% fetal calf serum (FCS; Thermo Fisher Scientific, Waltham, Mass., USA) and supplements.
C57Bl/KaLwRij mice (aged 6-8 weeks) were used for all in vivo studies. For MM tumor studies, mice were inoculated with 5×10^5 5 TGM1 cells in 100 μl phosphate buffered saline by intravenous injection (i.v.) via the tail vein. Total body tumor burden was assessed at days 14, 21 and 28 using the Xenogen IVIS, as previously described (Mrozik, K. M., et al., 2015, Br. J. Haematol. 171, 387-399.). All animals used for therapy studies were randomized by age, sex and, where appropriate, tumor burden. Compound 15 was dissolved at a concentration of 10 mg/ml in saline containing 40% 2-hydroxyproprol-β-cyclodextrin. Either compound 15 (50 mg/kg/day) (N=8) or vehicle (40% 2-hydroxyproprol-β-cyclodextrin in saline) (N=7) alone was administered to mice i.p. commencing 15 minutes prior to 5TGM1 cell injection for 5 days. […] Compound 15 is therefore effective for treatment of MM.

[7] = system: Myeloma cells MM.1S; experiment: multiple myeloma cell viability, high content screening of live cells; assay type: cell-based; conditions: 24 h post-treatment
Experimental: Myeloma cells MM.1S (American Type Culture Collection, Manassas, Va., USA) were cultured in RPMI-1640 medium supplemented with 10% fetal bovine serum (Thermo Fisher Scientific, Waltham, Mass., USA), 100 U/mL of penicillin, and […] of streptomycin. The cells were grown at 37° C. in a humidified incubator with 5% CO2.
In these experiments, MM.1S cells were pre-labeled with CellTrace Violate (Thermo Fisher Scientific), plated on 96-well plates (1.5×10^5 cells/well) and treated with varying concentrations of compound 15 (1-100 μM) or DMSO (vehicle control). High content screening (CellInsight CX5, Thermo Fisher Scientific) was utilized to quantify the number of live cells (i.e. calcein AM+ cells) 24 h post-treatment. FIG. 13 presents photomicrographs (upper panel) and quantitative data (lower panel) of cells treated with compound 15.

[8] = system: cerebellar neurons on 3T3 fibroblasts that express N-cadherin; experiment: neurite outgrowth assay; assay type: cell-based, mouse; conditions: 10 micromolar; 18 hours culture
Experimental: Within a representative neurite outgrowth assay, neurons are cultured on a monolayer of cells (e.g., 3T3 fibroblasts) that express N-cadherin. […] For example, neurons can be cultured on monolayers of 3T3 cells transfected with cDNA encoding N-cadherin essentially as described by Doherty, P. and Walsh, F. S., Curr. Op. Neurobiol. 4:49-55, 1994; Williams, E. J., et al., Neuron 13:583-594, 1994; Hall, H., et al., Cell Adhesion and Commun. 3:441-450, 1996; Doherty, P. and Walsh, F. S., Mol. Cell. Neurosci. 8:99-111, 1994; and Safell, J. L., et al., Neuron 18:231-242, 1997. Briefly, monolayers of control 3T3 fibroblasts and 3T3 fibroblasts that express N-cadherin are established by overnight culture of 80,000 cells in individual wells of an 8-chamber well tissue culture slide. 3000 cerebellar neurons isolated from post-natal day 3 mouse brains are cultured for 18 hours on the various monolayers in control media (SATO/2% FCS), or media supplemented with various concentrations of the modulating agent. The cultures are then fixed and stained for GAP43 which specifically binds to the neurons and their neurites. The length of the longest neurite on each GAP43 positive neuron is measured by computer assisted morphometry.

[9] = system: classical cadherin-expressing cells; experiment: cell adhesion assay, classical cadherin mediated cell adhesion; assay type: cell-based; conditions: 1 micromolar; determined visually within 24 hours
Experimental: In these experiments, classical cadherin-expressing cells are plated under standard conditions that, in the absence of cell adhesion antagonist, permit cell adhesion. Disruption of cell adhesion is determined visually within 24 hours, by observing retraction of the cells from one another.

[10] = system: human cancer-associated fibroblast (CAF010415); experiment: cancer-associated fibroblast viability, CELLTITER GLO; assay type: cell-based; conditions: in vitro; measured after 24 h and 48 h
Experimental: In this study, CAFs were isolated as described by Orr et al, (On, B., et al., Oncogene, 31, 1130-1142, 2012). The cells were grown in Dulbecco's modified Eagle medium (Multicell) with 10% fetal bovine serum. CAFs are human primary fibroblasts, grown from patient prostate tumor samples. These cells are not an established cell line, nor are they immortalized, and at some point they will senesce.
In these experiments, cells were seeded in a 96-well plate (Corning) (3,000 cells/well). The next day, the drug was added at the indicated concentration (FIG. 8). After 24 h and 48 h cell viability was measured using CELLTITER GLO® (Promega, Madison, Wis.) according to the manufacturer's protocol. All assays were repeated at least 3 times in triplicate each time. The results are depicted in FIG. 8 as SEM. […] The N-cadherin antagonist compound 15 thus decreases the viability of human pancreatic cancer (PC) cells and CAFs. These observations indicate that N-cadherin antagonists can be used to treat PC.

Structure (SMILES)	concentration at which complete disruption occurred [1]	minimum concentration required to observe cohesion disruption [1]	cell death in comparison to the control ([2]; 1 μM)	cell death in comparison to the control ([2]; 10 μM)	cell death in comparison to the control ([2]; 100 μM)	disruption of cell adhesion ([3]; 0.1 μM)	disruption of cell adhesion ([3]; 1 μM)	disruption of cell adhesion ([3]; 10 μM)	disruption of cell adhesion ([3]; 100 μM)	concentration range in which effects on FLS cells (disruption of cell adhesion) can be seen [4]	corpus luteum formation (luteinized CL-like structures in ovaries) [5]	ovulation [5]	total body tumour burden [6]	number of live cells (calcein AM+) on the substratum ([7]; 10 μM)	number of live cells (calcein AM+) on the substratum ([7]; 100 μM)	decrease in the mean neurite length relative to the length in the absence of modulating agent [8]	disruption of cell adhesion (retraction of the cells from one another) [9]	cell viability [10]
COc1ccc(OC[C@@H](O)CNC2CCN(C[C@@H](O)COc3ccc(Cl)c(Cl)c3)CC2)cc1 [Compound 16, (R)-1-(3,4-Dichlorophenoxy)-3-(4-((S)-2-hydroxy-3-(4-methoxyphenoxy)propylamino)piperidin-1-yl)propan-2-ol]	75 µM	50 µM	caused cell death	caused cell death	caused cell death	disrupted cell adhesion	disrupted cell adhesion	disrupted cell adhesion	disrupted cell adhesion	–	–	–	–	–	–	–	–	–
COc1ccc(OC[C@@H](O)CNC2CCN(C[C@H](O)COc3ccc(Cl)c(Cl)c3)CC2)cc1 [Compound 15, (S)-1-(3,4-Dichlorophenoxy)-3-(4-((S)-2-hydroxy-3-(4-methoxyphenoxy)propylamino)piperidin-1-yl)propan-2-ol]	75 µM	40 µM	–	caused cell death	caused cell death	not disrupted	disrupted cell adhesion	disrupted cell adhesion	disrupted cell adhesion	5 to 50 µM	fewer clearly luteinized CL-like structures	inhibits ovulation	caused a decrease in tumour burden	caused a decrease in the number of live cells	caused a decrease in the number of live cells	at least 50%	disruption of cell adhesion is observed	decreases human cancer-associated fibroblast (CAF010415) viability
